Where “and” joins values, the source holds several entries; their conditions need not be identical. Equal entries are not always repeated.
Molecular target: T1, Gal4-HNF4α (human HNF4α LBD) (Homo sapiens, UniProt P41235)
T1 construct: uniprot entry: P41235-1, residues 142-377; expressed in transfected cells; host or cells: HEK293T
T1 sequence (P41235 142-377): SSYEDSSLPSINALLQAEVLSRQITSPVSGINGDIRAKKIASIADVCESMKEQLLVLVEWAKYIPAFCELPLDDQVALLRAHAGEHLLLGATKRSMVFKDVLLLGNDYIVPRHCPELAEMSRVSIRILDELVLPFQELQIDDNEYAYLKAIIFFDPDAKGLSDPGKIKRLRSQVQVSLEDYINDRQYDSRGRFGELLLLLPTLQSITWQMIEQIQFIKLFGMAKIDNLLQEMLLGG
Test: Hybrid Gal4-HNF4α reporter gene assay in transiently transfected HEK293T cells
Assay type: cell-based
Details: Table S1, primary screening, 50 µM

| Structure (SMILES) | HNF4a-screening_activity_(mean_of_n=2) |
| --- | --- |
| CC(C)C1NCCc2c1[nH]c1ccccc21 (centres unmarked) [Prestw-Frag-1264, CC(C)C1NCCc2c1[nH]c1ccccc21] | 1.008 |
| NC1=NCCN1 [Prestw-Frag-1268, NC1=NCCN1] | 1.024 |
| COc1cc2c(cc1OC)C(C)N(C)CC2 (centres unmarked) [Prestw-Frag-1273, COc1cc2CCN(C)C(C)c2cc1OC] | 1.056 and 0.9179 |
| COc1cc2c(cc1OC)CN(C)CC2 [Prestw-Frag-1275, COc1cc2CCN(C)Cc2cc1OC] | 0.9717 and 0.8575 |
| COc1cc2c(cc1OC)CNCC2 [Prestw-Frag-1276, COc1cc2CCNCc2cc1OC] | 1.117 |
| OCc1cc2ccccc2[nH]1 [Prestw-Frag-1297, OCc1cc2ccccc2[nH]1] | 1.241 |
| CCc1cccc2c(CCO)c[nH]c12 [Prestw-Frag-1299, CCc1cccc2c(CCO)c[nH]c12] | 1.255 |
| OCCn1ccnc1 [Prestw-Frag-1303, OCCn1ccnc1] | 0.8061 and 1.219 |
| C[C@H]1NC(=O)NC1=O [Prestw-Frag-1311, C[C@H]1NC(=O)NC1=O] | 1.09 |
| COc1ccc(C(=O)O)cc1N1CCCC1 [Prestw-Frag-1313, COc1ccc(cc1N1CCCC1)C(O)=O] | 1.093 |
| O=C(O)c1ccccc1Nc1cccc(Cl)c1 [Prestw-Frag-1319, OC(=O)c1ccccc1Nc1cccc(Cl)c1] | 0.64 |
| Cc1cccc(Nc2ccccc2C(=O)O)c1 [Prestw-Frag-1320, Cc1cccc(Nc2ccccc2C(O)=O)c1] | 0.7946 and 1.022 |
| Nc1cccc(C(F)(F)F)c1 [Prestw-Frag-1322, Nc1cccc(c1)C(F)(F)F] | 0.9015 |
| Fc1ccc(C(c2ccc(F)cc2)N2CCNCC2)cc1 [Prestw-Frag-1323, Fc1ccc(cc1)C(N1CCNCC1)c1ccc(F)cc1] | 1.017 and 1.002 |
| CN1CCN(C(c2ccccc2)c2ccccc2)CC1 [Prestw-Frag-1325, CN1CCN(CC1)C(c1ccccc1)c1ccccc1] | 0.9831 |
| COc1ccccc1OCCCO [Prestw-Frag-1335, COc1ccccc1OCCCO] | 0.806 and 0.9658 |
| OCC(O)COc1ccccc1 (centres unmarked) [Prestw-Frag-1337, OCC(O)COc1ccccc1] | 0.9566 |
| COc1ccccc1OCCO [Prestw-Frag-1338, COc1ccccc1OCCO] | 0.8769 and 0.9665 |
| CCC(C(=O)OCCN(CC)CC)c1ccccc1 (centres unmarked) [Prestw-Frag-1343, CCC(C(=O)OCCN(CC)CC)c1ccccc1] | 0.9028 and 1.004 |
| CCN(CC)CCOc1ccccc1O [Prestw-Frag-1345, CCN(CC)CCOc1ccccc1O] | 0.7766 and 1.111 |
| OC(c1ccc(Cl)cc1)c1ccccn1 (centres unmarked) [Prestw-Frag-1346, OC(c1ccc(Cl)cc1)c1ccccn1] | 0.8912 |
| CCOC(=O)C1c2ccccc2Oc2ccccc21 [Prestw-Frag-1348, CCOC(=O)C1c2ccccc2Oc2ccccc12] | 0.8228 |
| CNC(=O)c1cnc(C)cn1 [Prestw-Frag-1350, CNC(=O)c1cnc(C)cn1] | 0.7205 and 0.8855 |

| Structure (SMILES) | HNF4a-screening_activity_(mean_of_n=2) |
| --- | --- |
| CNCCc1c[nH]c2ccccc12 [Prestw-Frag-1356, CNCCc1c[nH]c2ccccc12] | 0.7184 and 0.9553 |
| COc1ccc(CNc2ncccn2)cc1 [Prestw-Frag-1358, COc1ccc(CNc2ncccn2)cc1] | 0.8945 and 1.199 |
| O=C1COc2ccccc21 [Prestw-Frag-1361, O=C1COc2ccccc12] | 1.58 |
| OC1(c2ccc(Cl)cc2)CCNCC1 [Prestw-Frag-1365, OC1(CCNCC1)c1ccc(Cl)cc1] | 0.8125 |
| CCCC(=O)c1ccc(F)cc1 [Prestw-Frag-1368, CCCC(=O)c1ccc(F)cc1] | 1.103 |
| COc1ccc2cc[nH]c2c1 [Prestw-Frag-1372, COc1ccc2cc[nH]c2c1] | 1.02 |
| Oc1ccc2cc[nH]c2c1 [Prestw-Frag-1374, Oc1ccc2cc[nH]c2c1] | 1.128 |
| O=C(OC1CCCCC1)c1ccccc1O [Prestw-Frag-1382, Oc1ccccc1C(=O)OC1CCCCC1] | 0.9579 and 1.189 |
| NCC(O)COc1cccc2ccccc12 (centres unmarked) [Prestw-Frag-1389, NCC(O)COc1cccc2ccccc12] | 0.8528 and 1.218 |
| NS(=O)(=O)c1ccccc1C(F)(F)F [Prestw-Frag-1394, NS(=O)(=O)c1ccccc1C(F)(F)F] | 0.846 |
| c1cc2c(cc1CN1CCNCC1)OCO2 [Prestw-Frag-1397, C(N1CCNCC1)c1ccc2OCOc2c1] | 1.012 |
| c1cnc(N2CCNCC2)nc1 [Prestw-Frag-1398, C1CN(CCN1)c1ncccn1] | 1.074 and 0.9138 |
| COC(=O)C(CO)c1ccccc1 (centres unmarked) [Prestw-Frag-1406, COC(=O)C(CO)c1ccccc1] | 0.9811 and 0.9479 |
| Cc1c[nH]nc1C [Prestw-Frag-1408, Cc1c[nH]nc1C] | 1.108 |
| NNC(=O)c1ccncc1 [Prestw-Frag-1419, NNC(=O)c1ccncc1] | 0.9909 |
| NNC(=O)c1ccccc1 [Prestw-Frag-1420, NNC(=O)c1ccccc1] | 1.278 |
| c1cnc2[nH]ncc2c1 [Prestw-Frag-1428, c1n[nH]c2ncccc12] | 1.325 |
| NC(=O)c1ccccc1O [Prestw-Frag-1439, NC(=O)c1ccccc1O] | 1.146 |
| c1ccc(-c2ccccc2-c2nnn[nH]2)cc1 [Prestw-Frag-1441, c1ccc(cc1)-c1ccccc1-c1nnn[nH]1] | 1.051 and 0.7815 |
| c1ccc(CC2NCCc3ccccc32)cc1 (centres unmarked) [Prestw-Frag-1444, C(C1NCCc2ccccc12)c1ccccc1] | 1.349 |
| COc1ccc(CCN(C)C)cc1OC [Prestw-Frag-1445, COc1ccc(CCN(C)C)cc1OC] | 1.047 and 0.984 |
| CNCCc1ccc(OC)c(OC)c1 [Prestw-Frag-1446, CNCCc1ccc(OC)c(OC)c1] | 1.187 and 1.106 |
| CCN(CC)Cc1cc(N)ccc1O [Prestw-Frag-1462, CCN(CC)Cc1cc(N)ccc1O] | 1.135 |

| Structure (SMILES) | HNF4a-screening_activity_(mean_of_n=2) |
| --- | --- |
| c1ccc(CNc2ccccn2)cc1 [Prestw-Frag-1475, C(Nc1ccccn1)c1ccccc1] | 1.278 |
| CN(C)CCNCc1ccccc1 [Prestw-Frag-1476, CN(C)CCNCc1ccccc1] | 1.113 |
| CC(=O)NCCc1c[nH]c2ccccc12 [Prestw-Frag-1478, CC(=O)NCCc1c[nH]c2ccccc12] | 1.089 |
| COc1ccc2[nH]cc(CCN)c2c1 [Prestw-Frag-1480, COc1ccc2[nH]cc(CCN)c2c1] | 1.025 and 1.119 |
| Nc1c(Cl)ccc2nsnc12 [Prestw-Frag-1492, Nc1c(Cl)ccc2nsnc12] | 1.089 |
| Cc1cnc(C(=O)O)cn1 [Prestw-Frag-1494, Cc1cnc(cn1)C(O)=O] | 0.7971 and 1.166 |
| O=C(O)c1cnccn1 [Prestw-Frag-1495, OC(=O)c1cnccn1] | 1.013 |
| O=C(O)CC[C@H](NC(=O)c1ccccc1)C(=O)O [Prestw-Frag-1499, OC(=O)CC[C@H](NC(=O)c1ccccc1)C(O)=O] | 1.11 |
| COc1cc(C)cc(C)c1C [Prestw-Frag-1506, COc1cc(C)cc(C)c1C] | 1.143 |
| Cc1nccn1CCO [Prestw-Frag-1517, Cc1nccn1CCO] | 0.9796 and 1.002 |
| CNCC(c1ccc(OC)cc1)C1(O)CCCCC1 (centres unmarked) [Prestw-Frag-1523, CNCC(c1ccc(OC)cc1)C1(O)CCCCC1] | 1.103 and 1.105 |
| CN(C)C(=O)Oc1ccccc1 [Prestw-Frag-1540, CN(C)C(=O)Oc1ccccc1] | 1.182 |
| Nc1ccc([N+](=O)[O-])cc1Cl [Prestw-Frag-1543, Nc1ccc(cc1Cl)[N+]([O-])=O] | 0.9851 |
| COC(=O)C1=C(C)NC(C)=C(C(=O)OC)C1 [Prestw-Frag-1547, COC(=O)C1=C(C)NC(C)=C(C1)C(=O)OC] | 0.9986 |
| CN1Cc2c(N)cccc2C(c2ccccc2)C1 (centres unmarked) [Prestw-Frag-1552, CN1CC(c2ccccc2)c2cccc(N)c2C1] | 1.162 |
| CN1CCc2cccc(N)c2C1 [Prestw-Frag-1553, CN1CCc2cccc(N)c2C1] | 1.039 and 1.009 |
| COc1ccc(N2CCN(c3ccc(N)cc3)CC2)cc1 [Prestw-Frag-1557, COc1ccc(cc1)N1CCN(CC1)c1ccc(N)cc1] | 1.098 |
| O=c1[nH]nc(Cc2ccc(Cl)cc2)c2ccccc12 [Prestw-Frag-1559, Clc1ccc(Cc2n[nH]c(=O)c3ccccc23)cc1] | 1.206 and 0.9531 |
| O=c1[nH]ncc2ccccc12 [Prestw-Frag-1560, O=c1[nH]ncc2ccccc12] | 1.119 |
| O=c1[nH]nc(Cc2ccccc2)c2ccccc12 [Prestw-Frag-1561, O=c1[nH]nc(Cc2ccccc2)c2ccccc12] | 1.103 |
| Cc1cc(C(C)(C)C)cc(C)c1CC1=NCCN1 [Prestw-Frag-1575, Cc1cc(cc(C)c1CC1=NCCN1)C(C)(C)C] | 1.056 |
| O=c1[nH]c2ccccc2n1C1CCNCC1 [Prestw-Frag-1587, O=c1[nH]c2ccccc2n1C1CCNCC1] | 1.041 |

Reference: article PMC7660650, “Chemical Starting Matter for HNF4α Ligand Discovery and Chemogenomics” (International Journal of Molecular Sciences, 2020)
